# US20090023696A1, “USE OF C3-C10 17ALFA-ESTERS OF 9,11-DEHYDROCORTEXOLONE AS ANTI-GONADOTROPHIC AGENTS” (COSMO BIO-TECHNOLOGIES SRL, priority 2005, published 2009)
# Values joined by “and” are separate entries in the source; they are usually repeats but may differ in a detail not shown here. Equal entries are not always repeated. “Also recorded” adds a separate entry of the source. Marks after values point to notes of the source that are not given here.
# System: hypersecretion of gonadotrophin in the parabiotic rat
# Assay: Hypersecretion of gonadotrophin induced by castration in parabiotic rats (ovarian weight)
# Format: in vivo, Wistar rats
# Conditions: for Inhibition of ovarian weight (%): subcutaneously into castrated males; for anti-gonadotrophic effect (inhibitory effect on gonadotrophin secretion), in words: overall conclusion from Table 1
# Procedure: The anti-gonadotrophic action was evaluated in an animal model by evaluation of the hypersecretion of the gonads induced by castration in parabiotic rats (Shipley E. G., in: Methods in Hormone Research, R. L Dorfman (ed.), vol. 2, pp 179-274. Academic Press, New York and London, 1962). The results of the inhibitory action of […] 17α-butyrate on the gonads are shown below in Table 1. Wistar rats of both sexes with body weights of 50-60 g were used. The males were castrated and, on the next day, were surgically united along the lateral body wall with intact females (parabiosis). In this experimental procedure, the castration of the males induces in them an immediate hypersecretion of gonadotrophin, which, on reaching the female via the parabiotic union, stimulates ovarian growth. […] Progesterone was used as a positive control and was administered by the same procedure, in doses of 0.5 and 2 mg. Additional groups of pairs including intact males/intact females and castrated males/intact females were treated with the vehicle only and used as a control. At the end of the treatment period, the pairs were killed and autopsies performed. The ovaries and uteruses of each female rate were isolated and weighed. The inhibitory action causing hypersecretion of gonadotrophin due to castration was evaluated via the capacity of the tested compound to oppose the increase of weight of the ovaries.
Structure (SMILES),Inhibition of ovarian weight (%) (daily dose 1 mg),Inhibition of ovarian weight (%) (daily dose 5 mg),"anti-gonadotrophic effect (inhibitory effect on gonadotrophin secretion), in words",Inhibition of ovarian weight (%) (daily dose 0.5 mg),Inhibition of ovarian weight (%) (daily dose 2 mg)
"CCC(=O)O[C@]1(C(=O)CO)CC[C@H]2[C@@H]3CCC4=CC(=O)CC[C@]4(C)[C@H]3CC[C@@]21C [cortexolone 17α-propionate, reference compound]",5%,5%,no anti-gonadotrophic action at all,–,–
"CCCC(=O)O[C@]1(C(=O)CO)CCC2C3CCC4=CC(=O)CCC4(C)C3=CCC21C (stereo partly drawn) [9,11-dehydrocortexolone 17α-butyrate]",59% and 59^a %,96% and 96^a %,strong and significant dose-correlated inhibitory effect on gonadotrophin secretion; also recorded: comparable to that shown by comparable doses of progesterone,–,–
"CC(=O)[C@H]1CC[C@H]2[C@@H]3CCC4=CC(=O)CC[C@]4(C)[C@H]3CC[C@]12C [progesterone, reference compound]",–,–,–,38^b %,66^a %
